Counter-ions that a name gives are not always drawn.
Target: HPK1 (Homo sapiens (Human), UniProt Q92918)
Assay: HPK1 Lantha binding assay ("Lanth")
Settings: binding assays; Morrison Ki fit
Procedure, shortened: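 TR-FRET binding competition using 2 nM HPK1, 2 nM Eu-anti-GST antibody and 15 nM Tracer222 at 23 °C. Compound was incubated 1 h with enzyme and antibody, then 1 h after tracer addition, with an 11-point 5-fold dilution series. Ki obtained from a Morrison fit that corrects for tracer concentration and Kd.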

Chain of HPK1 (Q92918 1-346 limits assumed): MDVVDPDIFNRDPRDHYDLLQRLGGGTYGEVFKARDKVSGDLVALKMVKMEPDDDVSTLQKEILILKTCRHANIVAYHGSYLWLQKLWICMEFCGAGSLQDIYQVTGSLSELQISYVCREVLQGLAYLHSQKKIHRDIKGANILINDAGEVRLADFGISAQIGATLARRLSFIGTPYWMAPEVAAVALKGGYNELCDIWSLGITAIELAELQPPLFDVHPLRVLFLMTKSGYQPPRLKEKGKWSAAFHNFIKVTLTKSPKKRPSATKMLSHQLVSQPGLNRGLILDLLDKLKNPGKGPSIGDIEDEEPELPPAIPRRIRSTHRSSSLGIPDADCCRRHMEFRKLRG

Row | SMILES | Ki
1 | CN1CCN(c2cc(Cl)cc3c(-c4cnc5c(c4)C4(CC4)CN5)c[nH]c23)C(=O)C1 [Compound 310, 1-(5-Chloro-3-(1′,2′-dihydrospiro[cyclopropane-1,3′-pyrrolo[2,3-b]pyridin]-5′-yl)-1H-indol-7-yl)-4-methylpiperazin-2-one] | 10.6 nM
2 | NC(=O)CCn1cc(-c2cnc3c(c2Cl)C2(CC=CC2)CN3)cn1 [Compound 311, 3-(4-(4′-Chloro-1′,2′-dihydrospiro[cyclopentane-1,3′-pyrrolo[2,3-b]pyridin]-3-en-5′-yl)-1H-pyrazol-1-yl)propanamide] | 161 nM
3 | Clc1ccc2[nH]cc(-c3cnc4c(c3)C3(CC3)CN4)c2c1 [Compound 312, 5′-(5-Chloro-1H-indol-3-yl)-1′,2′-dihydrospiro[cyclopropane-1,3′-pyrrolo[2,3-b]pyridine]] | 45.9 nM
4 | Cc1ccc2[nH]cc(-c3cnc4c(c3)C3(CC3)CN4)c2c1 [Compound 313, 5′-(5-Methyl-1H-indol-3-yl)-1′,2′-dihydrospiro[cyclopropane-1,3′-pyrrolo[2,3-b]pyridine]] | 73.1 nM
5 | c1ccc2c(-c3cnc4c(c3)C3(CC3)CN4)c[nH]c2c1 [Compound 314, 5′-(1H-Indol-3-yl)-1′,2′-dihydrospiro[cyclopropane-1,3′-pyrrolo[2,3-b]pyridine]] | 125 nM
6 | COc1c(-c2c[nH]c3ccc(C#N)cc23)cnc2c1C1(CC1)CN2 [Compound 315, 3-(4′-Methoxy-1′,2′-dihydrospiro[cyclopropane-1,3′-pyrrolo[2,3-b]pyridin]-5′-yl)-1H-indole-5-carbonitrile] | 34.4 nM
7 | Fc1cccc2[nH]cc(-c3cnc4c(c3)C3(CC3)CN4)c12 [Compound 316, 5′-(4-Fluoro-1H-indol-3-yl)-1′,2′-dihydrospiro[cyclopropane-1,3′-pyrrolo[2,3-b]pyridine]] | 492 nM
8 | OCCn1cc(-c2cnc3c(c2Cl)C2(CC=CC2)CN3)cn1 [Compound 317, 2-(4-(4′-Chloro-1′,2′-dihydrospiro[cyclopentane-1,3′-pyrrolo[2,3-b]pyridin]-3-en-5′-yl)-1H-pyrazol-1-yl)ethan-1-ol] | 209 nM
9 | NC(=O)Cn1cc(-c2cnc3c(c2Cl)C2(CC=CC2)CN3)cn1 [Compound 318, 2-(4-(4′-Chloro-1′,2′-dihydrospiro[cyclopentane-1,3′-pyrrolo[2,3-b]pyridin]-3-en-5′-yl)-1H-pyrazol-1-yl)acetamide] | 236 nM
10 | CN(C)C(=O)Cn1cc(-c2cnc3c(c2Cl)C2(CC=CC2)CN3)cn1 [Compound 319, 2-(4-(4′-Chloro-1′,2′-dihydrospiro[cyclopentane-1,3′-pyrrolo[2,3-b]pyridin]-3-en-5′-yl)-1H-pyrazol-1-yl)-N,N-dimethylacetamide] | 306 nM
11 | CC(C)(O)Cn1cc(-c2cnc3c(c2Cl)C2(CC=CC2)CN3)cn1 [Compound 320, 1-(4-(4′-Chloro-1′,2′-dihydrospiro[cyclopentane-1,3′-pyrrolo[2,3-b]pyridin]-3-en-5′-yl)-1H-pyrazol-1-yl)-2-methylpropan-2-ol] | 337 nM
12 | Cc1[nH]ncc1-c1cnc2c(c1)C1(CC1)CN2 [Compound 321, 5′-(5-Methyl-1H-pyrazol-4-yl)-1′,2′-dihydrospiro[cyclopropane-1,3′-pyrrolo[2,3-b]pyridine]] | 321 nM
13 | N#Cc1ccc2[nH]nc(-c3cnc4c(c3)C3(CC3)CN4)c2c1 [Compound 322, 3-(1′,2′-Dihydrospiro[cyclopropane-1,3′-pyrrolo[2,3-b]pyridin]-5′-yl)-1H-indazole-5-carbonitrile] | 37.3 nM
14 | Clc1c(-c2cnn(Cc3ccccc3)c2)cnc2c1C1(CC=CC1)CN2 [Compound 323, 5′-(1-Benzyl-1H-pyrazol-4-yl)-4′-chloro-1′,2′-dihydrospiro[cyclopentane-1,3′-pyrrolo[2,3-b]pyridin]-3-ene] | 603 nM
15 | CN1CCN(c2cc(C#N)cc3c(-c4cnc5c(c4)C4(CC4)CN5)c[nH]c23)C(=O)C1 [Compound 324, 3-(1′,2′-Dihydrospiro[cyclopropane-1,3′-pyrrolo[2,3-b]pyridin]-5′-yl)-7-(4-methyl-2-oxopiperazin-1-yl)-1H-indole-5-carbonitrile] | 30.4 nM
16 | N#Cc1ccc2[nH]cc(-c3cnc4c(c3Cl)[C@]3(CC[C@H](O)CC3)CN4)c2c1 [Compound 325a, 3-((1s,4s)-4′-Chloro-4-hydroxy-1′,2′-dihydrospiro[cyclohexane-1,3′-pyrrolo[2,3-b]pyridin]-5′-yl)-1H-indole-5-carbonitrile] | 40.7 nM
17 | Cc1n[nH]cc1-c1ccc2[nH]cc(-c3cnc4c(c3)C3(CC3)CN4)c2c1 [Compound 326, 5′-(5-(3-Methyl-1H-pyrazol-4-yl)-1H-indol-3-yl)-1′,2′-dihydrospiro[cyclopropane-1,3′-pyrrolo[2,3-b]pyridine]] | 76 nM
18 | COCCn1cc(-c2cnc3c(c2Cl)C2(CC=CC2)CN3)cn1 [Compound 327, 4′-Chloro-5′-(1-(2-methoxyethyl)-1H-pyrazol-4-yl)-1′,2′-dihydrospiro[cyclopentane-1,3′-pyrrolo[2,3-b]pyridin]-3-ene] | 397 nM
19 | c1nc2c(cc1-c1c[nH]c3ccc(C4CC4)cc13)C1(CC1)CN2 [Compound 328, 5′-(5-Cyclopropyl-1H-indol-3-yl)-1′,2′-dihydrospiro[cyclopropane-1,3′-pyrrolo[2,3-b]pyridine]] | 289 nM
20 | c1cc2[nH]cc(-c3cnc4c(c3)C3(CC3)CN4)c2cn1 [Compound 329, 5-(1H-Pyrrolo[3,2-c]pyridin-3-yl)spiro[1,2-dihydropyrrolo[2,3-b]pyridine-3,1′-cyclopropane]] | 90 nM
21 | CS(=N)(=O)c1ccc2[nH]cc(-c3cnc4c(c3)C3(CC3)CN4)c2c1 (stereo not drawn) [Compound 331, (3-(1′,2′-Dihydrospiro[cyclopropane-1,3′-pyrrolo[2,3-b]pyridin]-5′-yl)-1H-indol-5-yl)(imino)(methyl)-γ6-sulfanone] | 243 nM
22 | c1ccc2c(c1)nnn2-c1cnc2c(c1)C1(CC1)CN2 [Compound 332, 5-(Benzotriazol-1-yl)spiro[1,2-dihydropyrrolo[2,3-b]pyridine-3,1′-cyclopropane]] | 570 nM
23 | c1cc2c(-c3cnc4c(c3)C3(CC3)CN4)c[nH]c2cn1 [Compound 333, 5-(1H-Pyrrolo[2,3-c]pyridin-3-yl)spiro[1,2-dihydropyrrolo[2,3-b]pyridine-3,1′-cyclopropane]] | 42.3 nM
24 | c1nnc(-c2ccc3[nH]cc(-c4cnc5c(c4)C4(CC4)CN5)c3c2)o1 [Compound 334, 2-(3-(1′,2′-Dihydrospiro[cyclopropane-1,3′-pyrrolo[2,3-b]pyridin]-5′-yl)-1H-indol-5-yl)-1,3,4-oxadiazole Formate Salt] | 48 nM
25 | Cn1cnnc1-c1ccc2[nH]cc(-c3cnc4c(c3)C3(CC3)CN4)c2c1 [Compound 335, 5′-(5-(4-Methyl-4H-1,2,4-triazol-3-yl)-1H-indol-3-yl)-1′,2′-dihydrospiro[cyclopropane-1,3′-pyrrolo[2,3-b]pyridine]] | 130 nM
26 | Cc1cc2[nH]cc(-c3cnc4c(c3)C3(CC3)CN4)c2cc1-c1cnn(C)c1 [Compound 336, 5′-(6-Methyl-5-(1-methyl-1H-pyrazol-4-yl)-1H-indol-3-yl)-1′,2′-dihydrospiro[cyclopropane-1,3′-pyrrolo[2,3-b]pyridine]] | 46.6 nM
27 | Fc1ccc2[nH]cc(-c3cnc4c(c3)C3(CC3)CN4)c2c1 [Compound 338, 5′-(5-Fluoro-1H-indol-3-yl)-1′,2′-dihydrospiro[cyclopropane-1,3′-pyrrolo[2,3-b]pyridine]] | 79.7 nM

Source: patent US12208088B2 (Genentech, Inc., priority 2018, dated 2025)
